Data on five compounds can be found in patent US10195178B2, “GPR40 agonists in anti-diabetic drug combinations” (Janssen Pharmaceutica NV, priority 2016, dated 2019).

“And” between values parts separate entries of the source, which are not always exact repeats. Equal values may be shown once.

One experiment has as its target human GPR40 (Homo sapiens (Human), UniProt O14842). Description: GPR40 Calcium Flux Assay. The class given is cell-based. The following applies: transfected HEK293 cells stably expressing human GPR40; mean data; read-out: hGPR40 Ca2+ Assay EC50. The protocol:
Compounds were tested in a calcium flux assay using transfected HEK293 cells stably expressing either human GPR40 or rat GPR40. Human GPR40 expressing cells were cultured in DMEM-High Glucose media supplemented with 10% fetal bovine serum, 1×L-Glutamine, 1×Penicillin/Streptomycin and 500 μg/mL G418. Rat GPR40 expressing cells were cultured in DMEM-High Glucose media supplemented with 10% fetal bovine serum and 1 μg/mL puromycin. Cells were plated into poly-D-lysine coated 384-well plates and cultured overnight in a 37° C. humidified tissue culture incubator under 5% CO2/[…] atmosphere. On the day of the experiment, the culture media was replaced with assay buffer (HBSS, 20 mM HEPES, 0.1% BSA) and the cells incubated at 37° C. for 1 h. Calcium-sensitive fluorescent dye (Fluo 8 No-Wash Calcium Dye, ABD Bioquest) was then added and the cells incubated for another 30 min at 37° C. followed by 15 min at room temperature while protected from the light. The cell plate and a plate of diluted compounds of Formula (I) were loaded into a fluorescent plate reader that added compounds onto the cells while measuring the fluorescence intensity of each well. The plate reader recorded fluorescence intensity at 1 second intervals for 8 min and provided the data for analysis in an Excel format. EC50 values were calculated using Prism (GraphPad) software.
Background: Calcium flux is commonly read through the fluorescence of an indicator in the cells.

Another experiment relates to SD rats. Description: Oral Glucose Tolerance Test: Canagliflozin Combination with GPR40 Agonist. It is filed as in vivo. The following applies: SD rat OGTT; for Blood glucose 0 min / Blood glucose 30 min / Blood glucose 60 min / Blood glucose 120 min / Blood glucose AUC / Blood glucose AUC % of Vehicle: single oral dose 60 min before glucose 2 g/kg; for Blood glucose AUC / Blood glucose AUC % of Vehicle: AUC 0-120 min. On the procedure: We have evaluated the blood glucose (BG) lowering effect of canagliflozin (Cana) combined with a GPR40 agonist Cpd 2 in SD rat studies. Overnight fasted SD rats received either a single treatment of Cana or Cpd 2 or a combination of both. An oral glucose tolerance test (OGTT) was followed at 60 min post compound administration. […] The two-sided Z Test and Delta method were applied to statistically determine the treatment additivity of combinations using blood glucose AUC values. Results indicated the treatments were additive in the combinations of Canagliflozin at 1 or 3 mg/kg and Cpd 2 at 0.3 or 1 mg/kg.
• A. The formulation of Canagliflozin was prepared by directly adding the required amount of 0.5% HPMC to the compound and stirring overnight. • B. The formulation of Cpd 2 was prepared following steps listed below: • a. One equivalent (amount of compound/compound MW) of 1N NaOH was added to dry compound to enhance water solubility (due to compound itself is a carboxylic acid). • b. The required volume of 0.5% HPMC was then added; • c. The compound was vortexed and sonicated (without heat) for a minimum of 10 minutes. • d. The compound was then allowed to stir overnight. • C. For the formulation of combination of Canagliflozin (Cana) and Cpd 2: • a. First, a formulation of double concentrations of each compound was prepared.
• b. Right before dosing, the double-concentrated formulation of Cpd 2 was mixed with an equal volume of the double-concentrated formulation of Canagliflozin, such that each compound was as 1× concentration. • D. The dosing volume for all the experiments was 10 mL/kg Experimental Design
Male SD rats (225-245 g of body weight, purchased from Charles River) were used in this study. SD rats were housed 2 per cage in a temperature-controlled room with 12-hour light/dark cycle (6 am-6 pm lights on). They are allowed ad libitum access to water and fed with Purina 5K75 (LabDiet, St. Louis, Mo.).
SD rats were fasted overnight. In the morning of the next day, these rats were grouped into the following 12 groups based on their fasted blood glucose levels determined by a glucometer (LifeScan, New Brunswick, N.J.) and body weight.
At −60 minutes BG values were collected via tail bleeding. Next, rats were dosed orally with vehicle or compounds in vehicle. Then, at 0 minutes, rats were bled via tail vein to determine BG levels and dosed orally with glucose (2 g/kg; 50% glucose, 4 mL/kg). Blood samples were collected at 30, 60, and 120 minutes after oral glucose administration for BG determination.
Statistical analysis were performed using the program Prism (Graphpad, Monrovia, Calif.) with either a repeated measures 1-way ANOVA (glucose and insulin curves with Tukey's post-test) or a one-way ANOVA and Tukey's multiple comparison test (AUC, delta AUC and percent vehicle). All data are presented as the mean±standard error of the mean (SEM).
The two-sided Z Test and Delta method was applied to statistically determine the treatment additivity of combinations.

human GPR40, sequence (O14842 whole entry): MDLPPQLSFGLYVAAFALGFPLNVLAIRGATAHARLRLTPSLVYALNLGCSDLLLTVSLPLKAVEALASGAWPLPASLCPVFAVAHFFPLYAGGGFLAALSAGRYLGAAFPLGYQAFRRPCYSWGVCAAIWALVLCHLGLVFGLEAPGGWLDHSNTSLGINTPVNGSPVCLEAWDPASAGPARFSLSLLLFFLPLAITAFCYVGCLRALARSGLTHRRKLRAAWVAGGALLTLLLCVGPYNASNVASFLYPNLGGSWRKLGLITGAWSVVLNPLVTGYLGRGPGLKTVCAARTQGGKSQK

In general, EC50 refers to the midpoint of the concentration-response curve. Turning to `CC#C[C@@H](CC(=O)O)c1ccc(OCc2ccc3scc(-c4ccc(OCCOC)cc4C)c3c2)nc1` [Cpd 77, (3R)-3-(6-((3-(4-(2-Methoxyethoxy)-2-methylphenyl)benzo[b]thiophen-5-yl)methoxy)pyridin-3-yl)hex-4-ynoic acid], on human GPR40, the EC50 is 16 nM and 6 nM and 5 nM.
With `CC#CC(CC(=O)O)c1ccc(OCc2ccc3scc(-c4ccccc4C)c3c2)cc1` (stereo not shown) [Cpd 97, 3-(4-((3-(2-Methylphenyl)benzo[b]thiophen-5-yl)methoxy)phenyl)hex-4-ynoic acid], the concentration giving a half-maximal response (EC50) at human GPR40 is 4 nM.
On to `Cc1ccc([C@@H]2O[C@H](CO)[C@@H](O)[C@H](O)[C@H]2O)cc1Cc1ccc(-c2ccc(F)cc2)s1` [Cana, canagliflozin], for which the “Blood glucose lowering during OGTT (in words)” value with SD rats (10 mg/kg) is “markedly lowering blood glucose”. Also, in the experiment with SD rats (1 mpk), the “Blood glucose 0 min” value was 76.9 ± 2.3 mg/dL, the “Blood glucose 30 min” value is 162.8 ± 6.5 mg/dL, the “Blood glucose 60 min” value turned out to be 177.8 ± 4.0 mg/dL and the “Blood glucose 120 min” value was 135.5 ± 8.2 mg/dL. In the experiment with SD rats (1 mpk), the “Blood glucose AUC” value was 18,099 ± 551 mg/dL/120 min and the “Blood glucose AUC % of Vehicle” value is recorded as 95.4 ± 2.9%. Moreover, in the experiment on SD rats (3 mpk), the “Blood glucose 0 min” value stood at 85.1 ± 3.0 mg/dL, the “Blood glucose 30 min” value came out at 140.5 ± 5.1 mg/dL, the “Blood glucose 60 min” value was found to be 156.4 ± 4.0 mg/dL and the “Blood glucose 120 min” value was 125.1 ± 9.7 mg/dL. In addition, in the experiment with SD rats (3 mpk), the “Blood glucose AUC” value is 16,204 ± 412 mg/dL/120 min and the “Blood glucose AUC % of Vehicle” value came out at 85.4 ± 2.2%. Besides, in the experiment with SD rats (10 mpk), the “Blood glucose 0 min” value came to 73.6 ± 4.4 mg/dL, the “Blood glucose 30 min” value came to 91.9 ± 6.4 mg/dL, the “Blood glucose 60 min” value was 103.5 ± 5.4 mg/dL and the “Blood glucose 120 min” value was 95.1 ± 3.7 mg/dL. Moreover, in the experiment with SD rats (10 mpk), the “Blood glucose AUC” value is reported as 11,400 ± 459 mg/dL/120 min and the “Blood glucose AUC % of Vehicle” value was determined as 60.1 ± 2.4%.
For the compound `Cc1ccccc1-c1csc2ccc(COc3ccc([C@]4(CC(=O)O)C[C@@H](O)C4)cc3)cc12` [Cpd 31, 2-((1r,3r)-3-Hydroxy-1-(4-((3-(2-methylphenyl)benzo[b]thiophen-5-yl)methoxy)phenyl)cyclobutyl)acetic acid], on human GPR40, the EC50 worked out at 48 nM.
For the compound `CC#C[C@@H](CC(=O)O)c1ccc(OCc2ccc3scc(-c4ccccc4C)c3c2)cc1` [Cpd 2, (3S)-3-[4-[[3-(2-Methylphenyl)benzo[b]thiophen-5-yl]methoxy]phenyl]hex-4-ynoic acid], in the experiment on SD rats (0.3 mpk), the “Blood glucose 0 min” value is 86.1 ± 4.2 mg/dL, the “Blood glucose 30 min” value came out at 149.0 ± 4.3 mg/dL, the “Blood glucose 60 min” value came to 153.1 ± 4.2 mg/dL and the “Blood glucose 120 min” value came out at 103.3 ± 4.0 mg/dL. Further, in the experiment on SD rats (0.3 mpk), the “Blood glucose AUC” value was 15,750 ± 244 mg/dL/120 min and the “Blood glucose AUC % of Vehicle” value is 83.0 ± 1.3%. Moreover, in the experiment on SD rats (1 mpk), the “Blood glucose 0 min” value came out at 76.1 ± 5.0 mg/dL, the “Blood glucose 30 min” value was 132.3 ± 6.4 mg/dL, the “Blood glucose 60 min” value is 139.6 ± 7.3 mg/dL and the “Blood glucose 120 min” value turned out to be 102.4 ± 4.8 mg/dL. Also, in the experiment with SD rats (1 mpk), the “Blood glucose AUC” value is listed as 14,464 ± 554 mg/dL/120 min and the “Blood glucose AUC % of Vehicle” value came to 76.2 ± 2.9%.
